These results are taken from patent US11612592B2, “Liquid formulations containing picosulfate and magnesium citrate” (FERRING B.V., priority 2015, dated 2023).

A short description of data set [1]: Time to precipitation on storage under ambient conditions (20-25 °C). It is filed as physicochemical. As to conditions: Table 3 data; 0.42 M. As for the experimental part: A liquid formulation containing sodium picosulfate and magnesium citrate was prepared by dissolving a sachet of commercially available PREPOPIK® containing sodium picosulfate (10 mg), magnesium oxide (3.5 g), citric acid (12 g), KHCO3 (0.65 g), and orange or berry flavoring in water (150 mL). The solution is stored under ambient conditions and observed periodically until precipitation from the solution is noted.
A liquid formulation containing sodium picosulfate and magnesium citrate stabilized with malic acid was prepared using the ingredients listed in Table 1. The solution is stored under ambient conditions and observed periodically for precipitation from the solution. No precipitation is observed within 340 days.
As a reference, commercially available sodium picosulfate/magnesium oxide/citric acid (PICOSOLUTION™, Pharmbio Co., Ltd.) is also stored under ambient conditions and observed periodically for precipitation from the solution. No precipitation is observed within 645 days.
The remainder of the formulation test solution may be stored at ambient temperature (e.g., 20-25° C.) to determine the stability under non-accelerated conditions.
Samples of each of the solutions are also stored at ambient temperature (20-25° C.) and monitored for the appearance of precipitation. […]

Data set [2] in a line: Freeze-thaw cycle accelerated method for predicting precipitation (height of precipitate in tube). To be noted: for Effectiveness to inhibit precipitation: 63 mmol in 150 mL (420 mM), five freeze-thaw cycles; for Effectiveness as precipitation inhibitor compared with malic acid: 31 mmol in 150 mL (210 mM). It is filed as physicochemical. As for the experimental part: A picosulfate formulation containing sodium picosulfate (10 mg), magnesium oxide (3.5 g), citric acid (12 g), and KHCO3 (0.65 g) and, optionally, a precipitation inhibitor (or combination of inhibitors) to be tested, dissolved in water (150 mL) is prepared. The pH is adjusted to the range 4.7-5.1 using aq. NaOH and aq. HCl solutions. The solution is filtered through a 0.22 μm PTFE filter under vacuum.
Two portions of 10 mL of the formulation test solution are placed in tapered, graduated, centrifuge tubes (15 mL) and subjected to five freeze-thaw cycles in which the solutions are frozen at −20° C. for at least 12 h and then thawed at 20-25° C. for 8 h. At the end of each cycle, the tube is inspected for precipitation at the bottom of the tube. If precipitation is present, the amount of precipitate is quantitated by measuring the height (in mm) of the precipitate in the centrifuge tube using a ruler.
The amount of precipitate (if any) is quantitated by measuring the height (in mm) of the precipitate in the centrifuge tube using a ruler at the end of each freeze thaw cycle.
If a polymer is included in the formulation, the polymer (75-150 mg) is dissolved in water (150 mL) until a clear solution (containing the polymer at a concentration of […]) is formed. A sachet of PREPOPIK® sodium picosulfate/magnesium citrate granules (containing sodium picosulfate (10 mg), magnesium oxide (3.5 g), citric acid (12 g), KHCO3 (0.65 g), Na-saccharin and orange flavoring) is added. A carboxylic acid (31-63 mmol) is added, and the pH is adjusted to the range 4.7-5.1 using aq. NaOH and aq. HCl solutions. The solution is filtered through a 0.22 μm PTFE filter under vacuum.

“Also recorded” adds a separate entry of the source.

Take `O=C(O)CC(O)C(=O)O` (stereo not drawn) [malic acid]: the “Concentration of malic acid needed for prolonged stability” value in data set [1] is recorded as at least 63 mmol per 150 mL. Also, in data set [2], the “Effectiveness to inhibit precipitation” value is “very effective; also recorded: effective to inhibit precipitation”.

Take `O=C(O)C(O)C(O)C(=O)O` (stereo not drawn) [tartaric acid]: in data set [2], the “Effectiveness as precipitation inhibitor compared with malic acid” value was “of comparable effectiveness” and the “Effectiveness to inhibit precipitation” value is reported as “very effective; also recorded: effective to inhibit precipitation”.

Regarding `O=C(O)CC(=O)O` [malonic acid], in data set [2], the “Effectiveness as precipitation inhibitor compared with malic acid” value is on record as “more effective as a precipitation inhibitor than malic acid” and the “Effectiveness to inhibit precipitation” value is on record as “very effective; also recorded: effective to inhibit precipitation”.
